From patent US20160158149A1, “Inhalable Pharmaceutical Compositions and the Inhaler Devices Containing Them” (priority 2013, published 2016)

Columns and labels:
[1] = Fine particle dose (FPD) of the inhaler assembly, invention versus conventional; assay type: physicochemical; settings: aerodynamic diameter 1 to 5 μm, assembly of the invention relative to conventional disk-shaped inhaler
Method: (§1) Pharmacokinetic data of an assembly for an inhaler according to the different embodiments of the invention described above together with the different variants of the pharmaceutical composition of the invention including salmeterol xinafoate and fluticasone proprionate were determined in comparison to the pharmacokinetic data of a conventional assembly including a disk-shaped inhaler housing a mixture of salmeterol xinafoate and fluticasone proprionate. Such a disk shaped inhaler is for example described in the PCT application WO 2001/97886 A1.
(§2) In particular, the fine particle dose (FPD), which is the amount of particles with an aerodynamic diameter of between 1 to 5 μm, the area under the curve (AUC), corresponds to the integral of the plasma concentration of an administered pharmaceutical drug substance versus an interval of definite time and Cmax, which is the maximum concentration measured for a pharmaceutical in the blood of test persons after it was administrated and prior to the administration of a second dose, were determined.

[2] = Pharmacokinetic data (AUC, Cmax) after inhalation, invention versus conventional assembly; assay type: in vivo, test persons
Method: as §1, §2

Row | Ratio invention/conventional FPD 1-5 μm [1] | Ratio invention/conventional Point estimate Cmax ([2]; maximum concentration in blood of test persons, assembly of the invention relative to conventional disk-shaped inhaler) | Ratio invention/conventional Point estimate AUC ([2]; plasma concentration versus time, assembly of the invention relative to conventional disk-shaped inhaler) | Ratio invention/conventional Point estimate AUC ([2]; human, in vivo) | Ratio invention/conventional Point estimate Cmax ([2]; human, in vivo, inhaled or intranasal) | SMILES
1 | 0.93 | 1.66 | 1.42 | – | – | CCC(=O)O[C@]1(C(=O)SCF)[C@H](C)C[C@H]2[C@@H]3C[C@H](F)C4=CC(=O)C=C[C@]4(C)[C@@]3(F)[C@@H](O)C[C@@]21C [Fluticasone, fluticasone proprionate]
2 | 0.90 | – | – | 1.25 | 1.69 | OCc1cc(C(O)CNCCCCCCOCCCCc2ccccc2)ccc1O (stereo not drawn) [Salmeterol, salmeterol xinafoate]
